Converted amounts (≈) assume the structure as drawn.
Experiments:
Staphylococcus aureus [1] = experiment: Antibacterial activity against Staphylococcus aureus ATCC 25923 by two-fold serial dilution method; type: functional
Neisseria gonorrhoeae [2] = experiment: Antibacterial activity against Neisseria gonorrhoeae NCTC 12700/ATCC 49226 by two-fold serial dilution method; type: functional
[3] = Cytotoxicity against mouse MacCoy B cells after 24 hrs by p-Nitro-Blue tetrazolium chloride dye based colorometric method; type: cell-based
[4] = tested on: Mycobacterium tuberculosis; experiment: Antitubercular activity against Mycobacterium tuberculosis H37Rv after […] by micro broth dilution method; type: functional
Neisseria gonorrhoeae [5] = experiment: Potency index, ratio of spectinomycin MIC to compound MIC for Neisseria gonorrhoeae NCTC 12700/ATCC 49226; type: functional
Staphylococcus aureus [6] = experiment: Potency index, ratio of spectinomycin MIC to compound MIC for Staphylococcus aureus ATCC 25923; type: functional
Neisseria gonorrhoeae [7] = experiment: Potency index, ratio of spectinomycin MIC to compound MIC for Neisseria gonorrhoeae NCTC 8375/ATCC 19424; type: functional
Neisseria gonorrhoeae [8] = experiment: Antibacterial activity against gonorrhea patient derived azithromycin resistant-Neisseria gonorrhoeae by two-fold serial dilution method; type: functional
Neisseria gonorrhoeae [9] = experiment: Antibacterial activity against Neisseria gonorrhoeae NCTC 8375/ATCC 19424 by two-fold serial dilution method; type: functional
Klebsiella pneumoniae = experiment: Antibacterial activity against Klebsiella pneumoniae ATCC 13883 by two-fold serial dilution method; type: functional
[10] = Toxicity in orally dosed mouse; type: organism-based; conditions: in vivo, po
Serratia marcescens = experiment: Antibacterial activity against Serratia marcescens ATCC 13880 by two-fold serial dilution method; type: functional
Escherichia coli = experiment: Antibacterial activity against Escherichia coli ATCC 8739 by two-fold serial dilution method; type: functional
Proteus vulgaris = experiment: Antibacterial activity against Proteus vulgaris RCPM 160125 (222) by two-fold serial dilution method; type: functional
Pseudomonas aeruginosa = experiment: Antibacterial activity against Pseudomonas aeruginosa ATCC 9027 by two-fold serial dilution method; type: functional
Shigella flexneri = experiment: Antibacterial activity against Shigella flexneri RCPM 1a8516 by two-fold serial dilution method; type: functional
Citrobacter braakii = experiment: Antibacterial activity against Citrobacter braakii ATCC 101/57 by two-fold serial dilution method; type: functional
[11] = Toxicity in mouse administered as single oral dose measured for 14 days; conditions: in vivo
[12] = Potency index, ratio of compound LD50 to isoniazid LD50 for mouse; type: ADME; conditions: in vivo

Row | Compound | MIC (Staphylococcus aureus [1]) [µg/mL] | MIC (Neisseria gonorrhoeae [2]) [µg/mL] | IC50 [3] [µM] | MIC [4] [µg/mL] | Ratio (Neisseria gonorrhoeae [5]) | Ratio (Staphylococcus aureus [6]) | Ratio (Neisseria gonorrhoeae [7]) | MIC (Neisseria gonorrhoeae [8]) [µg/mL] | MIC (Neisseria gonorrhoeae [9]) [µg/mL] | MIC (Klebsiella pneumoniae) [µg/mL] | LD50 [10] [mg/kg] | MIC (Serratia marcescens) [µg/mL] | MIC (Escherichia coli) [µg/mL] | MIC (Proteus vulgaris) [µg/mL] | MIC (Pseudomonas aeruginosa) [µg/mL] | MIC (Shigella flexneri) [µg/mL] | MIC (Citrobacter braakii) [µg/mL] | LD50 at 336 h [11] [mg/kg] | selectivity ratio [12]
1 | O=[N+]([O-])c1ccc(-c2ncncc2-c2ccc(F)cc2)o1 | 62.5 (≈ 219 µM) | 31.2 (≈ 110 µM) | 69.8 | 12.5 (≈ 43.8 µM) | <=16 | 4 | <=16 | 31.2 (≈ 110 µM) | 15.6 (≈ 54.7 µM) |  |  |  |  |  |  |  |  |  | 
2 | CN[C@@H]1[C@H](O)[C@H](NC)[C@H]2O[C@@]3(O)C(=O)C[C@@H](C)O[C@H]3O[C@@H]2[C@H]1O [SPECTINOMYCIN] | 31.2 (≈ 94 µM) | 15.6 (≈ 46.9 µM) | > 752 |  |  |  |  | 15.6 (≈ 46.9 µM) | 15.6 (≈ 46.9 µM) | 15.6 (≈ 46.9 µM) | > 10000 | 15.6 (≈ 46.9 µM) | 15.6 (≈ 46.9 µM) | 125 (≈ 376 µM) | 250 (≈ 752 µM) | 7.8 (≈ 23.5 µM) | 31.2 (≈ 94 µM) |  | 
3 | O=[N+]([O-])c1ccc(-c2ncncc2-c2cc(C(F)(F)F)cc(C(F)(F)F)c2)o1 |  |  |  | 12.5 (≈ 31 µM) |  |  |  |  | > 1000 |  |  |  |  |  |  |  |  |  | 
4 | O=[N+]([O-])c1ccc(-c2ncncc2Br)o1 | 7.8 (≈ 28.9 µM) | 0.97 (≈ 3.59 µM) | 167 | 1.5 (≈ 5.55 µM) | <=16 | 4 | <=16 | 3.9 (≈ 14.4 µM) | 7.8 (≈ 28.9 µM) | > 250 |  | > 250 | > 250 | > 250 | > 250 | 7.8 (≈ 28.9 µM) | > 250 | 300 | 2
5 | O=[N+]([O-])c1ccc(-c2ncncc2-c2cccc(F)c2)o1 | > 250 | 0.97 (≈ 3.4 µM) | 100 | 12.5 (≈ 43.8 µM) | <=16 | 4 | <=16 | 15.6 (≈ 54.7 µM) | 3.9 (≈ 13.7 µM) | > 250 |  | > 250 | > 250 | > 250 | > 250 | > 250 | > 250 |  | 
6 | O=[N+]([O-])c1ccc(-c2ncncc2-c2ccccc2C(F)(F)F)o1 | 15.6 (≈ 46.5 µM) | 3.9 (≈ 11.6 µM) | 74.4 | 12.5 (≈ 37.3 µM) | <=16 | 4 | <=16 | 15.6 (≈ 46.5 µM) | 15.6 (≈ 46.5 µM) | > 250 |  | > 250 | > 250 | > 250 | > 250 | 62.5 (≈ 186 µM) | > 250 |  | 
7 | O=[N+]([O-])c1ccc(-c2ncncc2-c2ccc(C(F)(F)F)cc2)o1 |  |  |  | 12.5 (≈ 37.3 µM) |  |  |  |  | 500 (≈ 1490 µM) |  |  |  |  |  |  |  |  |  | 
8 | O=[N+]([O-])c1ccc(-c2ncncc2-c2cc(F)cc(F)c2)o1 |  |  |  | 12.5 (≈ 41.2 µM) |  |  |  |  | > 1000 |  |  |  |  |  |  |  |  |  | 
9 | O=[N+]([O-])c1ccc(-c2ncncc2-c2ccccc2F)o1 | 15.6 (≈ 54.7 µM) | 1.95 (≈ 6.84 µM) | 67.5 | 12.5 (≈ 43.8 µM) | <=16 | 4 | <=16 | 7.8 (≈ 27.3 µM) | 7.8 (≈ 27.3 µM) | > 250 |  | > 250 | > 250 | > 250 | > 250 | > 250 | > 250 |  | 
10 | O=[N+]([O-])c1ccc(-c2ncncc2-c2cccc(C(F)(F)F)c2)o1 |  |  |  | 12.5 (≈ 37.3 µM) |  |  |  |  | 125 (≈ 373 µM) |  |  |  |  |  |  |  |  |  | 
11 | O=[N+]([O-])c1ccc(-c2ncncc2-c2ccc(F)cc2F)o1 | 31.2 (≈ 103 µM) | 3.9 (≈ 12.9 µM) | 66.8 | 12.5 (≈ 41.2 µM) | <=16 | 4 | <=16 | 31.2 (≈ 103 µM) | 31.2 (≈ 103 µM) | > 500 |  | > 500 | > 500 | > 250 | > 500 | > 250 | > 500 |  | 
12 | O=[N+]([O-])c1ccc(-c2ncncc2-c2ccc(C(F)(F)F)cc2C(F)(F)F)o1 | 15.6 (≈ 38.7 µM) | 3.9 (≈ 9.67 µM) | 45.5 | 12.5 (≈ 31 µM) | <=16 | 4 | <=16 | 1000 (≈ 2480 µM) | 1000 (≈ 2480 µM) | > 500 |  | > 500 | > 500 | > 250 | > 500 | > 250 | > 500 |  | 
13 | O=[N+]([O-])c1ccc(-c2ncncc2-c2ccccc2)o1 | 15.6 (≈ 58.4 µM) | 1.95 (≈ 7.3 µM) | 52.5 | 3.1 (≈ 11.6 µM) | <=16 | 4 | <=16 | 7.8 (≈ 29.2 µM) | 3.9 (≈ 14.6 µM) | > 250 |  | > 250 | > 250 | > 250 | > 250 | > 250 | > 250 | 450 | 3
14 | NNC(=O)c1ccncc1 [ISONIAZID] |  |  |  | 0.1 (≈ 0.729 µM) |  |  |  |  |  |  |  |  |  |  |  |  |  |  | 
15 | NC(=O)c1cnccn1 [PYRAZINAMIDE] |  |  |  | 12.5 (≈ 102 µM) |  |  |  |  |  |  |  |  |  |  |  |  |  |  | 
